# In PubChem BioAssay (NCI):
# Values joined by “and” are separate entries in the source; they are usually repeats but may differ in a detail not shown here. Identical values can stand only once.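 48-hour exposure; five concentrations; linearly interpolated endpoints. GI50 marks 50% less growth. The concentration for full growth arrest is given as TGI.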
# Columns and labels:
# Assay in all cases: NCI tumour cell line growth inhibition, 48 h
# [1] = test system: HCC-2998 colon
# [2] = test system: HL-60(TB) leukemia
# [3] = test system: K-562 leukemia
# [4] = test system: SF-268 CNS
# [5] = test system: SF-539 CNS
# [6] = test system: SK-MEL-28 melanoma
# [7] = test system: SK-OV-3 ovarian
# [8] = test system: SR leukemia
# [9] = test system: SW-620 colon
# [10] = test system: T-47D breast
SMILES,GI50 [1] [µM],TGI [1],GI50 [2] [µM],TGI [2] [µM],GI50 [3],TGI [3],GI50 [4],TGI [4],GI50 [5],TGI [5],GI50 [6],TGI [6],GI50 [7],TGI [7],GI50 [8] [µM],TGI [8] [µM],GI50 [9],TGI [9],GI50 [10],TGI [10]
C=CC(=O)Nc1cccc(Oc2nc(Nc3ccc(N4CCN(C)CC4)cc3)nc3ccsc23)c1,14.8,> 10 µM and 32.3 µM,1.43,4.09,2.03 µM and 2.15 µM,4.97 µM and 4.87 µM,3.48 µM and 2.73 µM,> 10 µM and 12.9 µM,1.62 µM and 1.75 µM,3.02 µM and 3.23 µM,1.87 µM and 1.89 µM,3.49 µM and 3.71 µM,0.307 µM and 0.508 µM,> 10 µM and 14 µM,2.23,5.73,2.07 µM and 1.92 µM,4.61 µM and 4.07 µM,9.72 µM and 5.29 µM,> 10 µM and 27 µM
O=C1OCC2=C1C(c1ccccc1)c1cc3c(cc1N2)OCO3 (centres undefined),0.0333,> 38.7 µM,0.0214,0.0573,,32.7 µM,0.0654 µM,> 43.4 µM,0.0318 µM,9.3 µM,0.0428 µM,> 100 µM,0.0308 µM,1.39 µM,< 0.0115,,0.037 µM,> 100 µM,5.14 µM,> 100 µM
CO[C@H]1CC(O[C@@H]2/C(C)=C/C[C@@H]3C[C@@H](C[C@]4(C=C[C@H](C)[C@@H](C5CCCCC5)O4)O3)OC(=O)[C@@H]3C=C(C)[C@@H](O)[C@H]4OC/C(=C\C=C\[C@@H]2C)[C@]43O)O[C@@H](C)C1O[C@H]1C[C@H](OC)[C@@H](O)[C@H](C)O1 (some centres undefined),1.51,3 µM,,,,,1.69 µM,3.18 µM,,,1.58 µM,3.03 µM,1.97 µM,3.61 µM,1.86,4.62,,,1.65 µM,3.43 µM
CC(=O)/C=C/c1cn(C(=O)OC(C)(C)C)c2ccc(Br)cc12,18,37.4 µM,29.6,> 100,18 µM,> 54 µM,24.1 µM,97.9 µM,12.8 µM,26 µM,25.9 µM,> 68.1 µM,20.6 µM,46.7 µM,71.6,> 100,19.1 µM,39 µM,17.4 µM,54.4 µM
O=C1NC(=O)C(N2C(=O)c3ccccc3C2=O)CC1O (centres undefined),,,> 100,> 100,> 100 µM,> 100 µM,> 100 µM,> 100 µM,> 100 µM,> 100 µM,> 100 µM,> 100 µM,> 100 µM,> 100 µM,> 100,> 100,> 100 µM,> 100 µM,> 100 µM,> 100 µM
OCC1OC(n2cnc3c(N/N=C\c4ccccn4)ncnc32)C(O)C1O (centres undefined),0.277,> 100 µM,0.0247,0.204,0.368 µM,> 100 µM,0.167 µM,1 µM,0.318 µM,2.27 µM,0.995 µM,> 100 µM,0.239 µM,2.97 µM,0.0387,> 87.7,0.422 µM,> 100 µM,0.282 µM,21 µM
CC1=C2[C@@H](CC1)[C@]1(C)O[C@@](c3ccccc3)(C[C@H]1OC(=O)CO)[C@H]2OC(=O)/C=C/c1ccccc1,15.2,31.6 µM,7.43,27.4,14 µM,61.9 µM,2.78 µM,32.5 µM,16.9 µM,35.8 µM,18.1 µM,42.2 µM,19 µM,44.8 µM,12,44.8,21.9 µM,60 µM,9.37 µM,48.8 µM
COc1ccc2cc1Oc1ccc(cc1)C[C@H]1c3c(cc4c(c3Oc3cc5c(cc3OC)CCN(C)[C@@H]5C2)OCO4)CCN1C,1.65,8.26 µM,3.54,11.9,,,5.09 µM,11.5 µM,0.826 µM,1.63 µM,0.911 µM,1.86 µM,6.23 µM,12.5 µM,0.908,2.87,2.11 µM,8.47 µM,0.988 µM,2.05 µM
O=S(=O)(c1ccc(Cl)cc1)C(Cl)(Cl)Cl,1.42,5.87 µM,1.8,7.7,1.6 µM,> 100 µM,1.56 µM,20.6 µM,3.17 µM,29 µM,4.47 µM,24 µM,14 µM,67 µM,0.486,39.7,2.58 µM,11.7 µM,1.39 µM,> 33.1 µM
O=C(O)CN1CCN(CC(=O)O)CC(=O)[O][Hg][O]C(=O)C1,,,13.7,34.7,17.9 µM,44.6 µM,20.7 µM,52.6 µM,60.1 µM,> 100 µM,19.2 µM,34.8 µM,> 92.2 µM,> 100 µM,14.8,38.6,19.6 µM,52.7 µM,17 µM,43.2 µM
COc1cc2nc(N3CCCC3)nc(NCCc3ccccc3)c2cc1OC,1.96,3.64 µM,1.85,4.25,1.81 µM,> 100 µM,1.97 µM,3.95 µM,1.78 µM,3.21 µM,1.66 µM,3.03 µM,1.93 µM,3.56 µM,0.653,5.74,1.38 µM,3.07 µM,1.94 µM,4.41 µM
COc1ccc2c(c1)N(CCO)C1=C(C(=O)OC1)C2c1cccc(F)c1 (centres undefined),1.07,> 50 µM,0.161,0.781,0.199 µM,> 50 µM,0.764 µM,> 50 µM,0.332 µM,3.19 µM,5.59 µM,> 50 µM,1.26 µM,> 50 µM,0.195,> 50,0.236 µM,> 50 µM,1.95 µM,> 50 µM
